One block for each compound: values may come before it.
Target: T1, AsPC-1 HiBiT-KRASG12D (Homo sapiens, UniProt P01116, G12D)
T1 construct: insert the HiBiT tag onto the N-terminus of one or more of the endogenous KRAS alleles; endogenous in cells; host or cells: AsPC-1 (ATCC CRL-1682), CRISPR-Cas9 knock-in clone, one tagged allele
Assay: HiBiT degradation assay (G12D), AsPC-1 HiBiT-KRASG12D cells
Type: cell-based
Settings: 24 hours treatment; for Dmax: ASPC1, AsPC-1 HiBiT-KRASG12D cells, maximum degradation observed; for DC50: AsPC-1 HiBiT-KRASG12D cells, HiBiT luminescence
Procedure, shortened: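 Luminescence read-out of HiBiT-tagged endogenous KRASG12D in AsPC-1 cells after 24 h compound exposure at 37° C; lytic Nano-Glo HiBiT detection, 45 min at room temperature. A parallel alamar blue read (4 h) checked viability, normalized to DMSO-only controls.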

T1 sequence (P01116 1-188 isoform P01116-2 G12D): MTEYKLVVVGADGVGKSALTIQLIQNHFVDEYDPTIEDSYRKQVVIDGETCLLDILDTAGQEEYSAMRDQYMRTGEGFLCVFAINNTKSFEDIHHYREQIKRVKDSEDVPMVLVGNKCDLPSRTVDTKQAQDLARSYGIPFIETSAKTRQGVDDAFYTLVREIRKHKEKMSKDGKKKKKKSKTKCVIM

Structure (SMILES): CCc1cccc2cc(O)cc(-c3ncc4c(N5CC6CCC(C5)N6)nc(OCCN5CC[C@@H]6CN(c7cc([C@@H](C(=O)N8C[C@H](O)C[C@H]8C(=O)N[C@@H](C)c8ccc(-c9scnc9C)cc8)C(C)C)on7)C[C@@H]6C5)nc4c3F)c12 (relative stereo) [Compound 72, (2S,4R)-1-[(2R*)-2-{3-[(3aR**,7aR***)-5-{2-[(4-{3,8-diazabicyclo[3.2.1]octan-3-yl}-7-(8-ethyl-3-hydroxynaphthalen-1-yl)-8-fluoropyrido[4,3-d]pyrimidin-2-yl)oxy]ethyl}-octahydro-1H-pyrrolo[3,4-c]pyridin-2-yl]-1,2-oxazol-5-yl}-3-methylbutanoyl]-4-hydroxy-N-[(1S)-1-[4-(4-methyl-1,3-thiazol-5-yl)phenyl]ethyl]pyrrolidine-2-carboxamide]
Dmax: < 20% | DC50: > 3000 nM

Structure (SMILES): C#Cc1c(F)ccc2cc(O)cc(-c3ncc4c(N5CC6CCC(C5)N6)nc(OC[C@]56CCCN5[C@H](COc5cc([C@@H](C(=O)N7C[C@H](O)C[C@H]7C(=O)N[C@@H](C)c7ccc(-c8scnc8C)cc7)C(C)C)on5)CC6)nc4c3F)c12 [Compound 312, (2S,4R)-1-[(2S)-2-[3-[[(3S,8R)-8-[[4-(3,8-diazabicyclo[3.2.1]octan-3-yl)-7-(8-ethynyl-7-fluoro-3-hydroxy-1-naphthyl)-8-fluoro-pyrido[4,3-d]pyrimidin-2-yl]oxymethyl]-1,2,3,5,6,7-hexahydropyrrolizin-3-yl]methoxy]isoxazol-5-yl]-3-methyl-butanoyl]-4-hydroxy-N-[(1S)-1-[4-(4-methylthiazol-5-yl)phenyl]ethyl]pyrrolidine-2-carboxamide]
Dmax: 20 to 60% | DC50: 1000 to 3000 nM

Structure (SMILES): CCc1cccc2cc(O)cc(-c3ncc4c(N5CC6CCC(C5)N6)nc(OC[C@@H]5CC[C@@H](COC(=O)N6CCN(c7cc([C@H](C(=O)N8C[C@H](O)C[C@H]8C(=O)N[C@@H](C)c8ccc(-c9scnc9C)cc8)C(C)C)on7)[C@H](C)C6)N5C)nc4c3F)c12 [Compound 301, [(2S,5S)-5-[[4-(3,8-diazabicyclo[3.2.1]octan-3-yl)-7-(8-ethyl-3-hydroxy-1-naphthyl)-8-fluoro-pyrido[4,3-d]pyrimidin-2-yl]oxymethyl]-1-methyl-pyrrolidin-2-yl]methyl (3R)-4-[5-[(1R)-1-[(2S,4R)-4-hydroxy-2-[[(1S)-1-[4-(4-methylthiazol-5-yl)phenyl]ethyl]carbamoyl]pyrrolidine-1-carbonyl]-2-methyl-propyl]isoxazol-3-yl]-3-methyl-piperazine-1-carboxylate]
Dmax: 80 to 100% | DC50: < 600 nM

DC50: > 3000 nM
Structure (SMILES): CCc1cccc2cc(O)cc(-c3ncc4c(N5CC6CCC(C5)N6C=O)nc(OCCN5CCC6(CC5)CN(c5cc([C@H](C(=O)N7C[C@H](O)C[C@H]7C(=O)N[C@@H](C)c7ccc(-c8scnc8C)cc7)C(C)C)on5)C6)nc4c3F)c12 [Compound 290, (2S,4R)-1-[(2R)-2-[3-[7-[2-[7-(8-ethyl-3-hydroxy-1-naphthyl)-8-fluoro-4-(8-formyl-3,8-diazabicyclo[3.2.1]octan-3-yl)pyrido[4,3-d]pyrimidin-2-yl]oxyethyl]-2,7-diazaspiro[3.5]nonan-2-yl]isoxazol-5-yl]-3-methyl-butanoyl]-4-hydroxy-N-[(1S)-1-[4-(4-methylthiazol-5-yl)phenyl]ethyl]pyrrolidine-2-carboxamide]

Structure (SMILES): C#Cc1c(F)ccc2cc(O)cc(-c3ncc4c(N5CC6CCC(C5)N6)nc(OCCN5CCC(F)(CN6CCN(c7cc([C@H](C(=O)N8C[C@H](O)C[C@H]8C(=O)N[C@@H](C)c8ccc(-c9ccnn9C)cc8)C(C)C)on7)CC6)CC5)nc4c3F)c12 [Compound 198, (2S,4R)-1-[(2R)-2-(3-{4-[(1-{2-[(4-{3,8-diazabicyclo[3.2.1]octan-3-yl}-7-(8-ethynyl-7-fluoro-3-hydroxynaphthalen-1-yl)-8-fluoropyrido[4,3-d]pyrimidin-2-yl)oxy]ethyl}-4-fluoropiperidin-4-yl)methyl]piperazin-1-yl}-1,2-oxazol-5-yl)-3-methylbutanoyl]-4-hydroxy-N-[(1S)-1-[4-(1-methyl-1H-pyrazol-5-yl)phenyl]ethyl]pyrrolidine-2-carboxamide]
Dmax: 80 to 100% | DC50: < 600 nM

Structure (SMILES): Cc1ncsc1-c1ccc([C@H](C)NC(=O)[C@@H]2C[C@@H](O)CN2C(=O)[C@@H](c2cc(OC3CN(C(=O)OC[C@@H]4CC[C@@H](COc5nc(N6CC7CCC(C6)N7)c6cnc(-c7cc(O)cc(Cl)c7C7CC7)c(F)c6n5)N4C)C3)no2)C(C)C)cc1 [Compound 285]
Dmax: 80 to 100% | DC50: < 600 nM

Structure (SMILES): CCc1cccc2cc(O)cc(-c3ncc4c(N5CC6CCC(C5)N6)nc(OC[C@]56CCCN5[C@H](COC(=O)N5CC(Oc7cc([C@@H](C(=O)N8C[C@H](O)C[C@H]8C(=O)N[C@@H](C)c8ccc(-c9scnc9C)cc8)C(C)C)on7)C5)CC6)nc4c3F)c12 [Compound 129, [(3S,7aR)-7a-{[(4-{3,8-diazabicyclo[3.2.1]octan-3-yl}-7-(8-ethyl-3-hydroxynaphthalen-1-yl)-8-fluoropyrido[4,3-d]pyrimidin-2-yl)oxy]methyl}-hexahydro-1H-pyrrolizin-3-yl]methyl 3-({5-[(2S)-1-[(2S,4R)-4-hydroxy-2-{[(1S)-1-[4-(4-methyl-1,3-thiazol-5-yl)phenyl]ethyl]carbamoyl}pyrrolidin-1-yl]-3-methyl-1-oxobutan-2-yl]-1,2-oxazol-3-yl}oxy)azetidine-1-carboxylate]
Dmax: 60 to 80% | DC50: < 600 nM

Structure (SMILES): CCc1cccc2cc(O)cc(-c3ncc4c(N5CC6CCC(C5)N6)nc(OCCN5CCC(F)(CN6CCN(c7cc([C@H](C(=O)N8C[C@H](O)C[C@H]8C(=O)N[C@@H](C)c8ccc(-c9scnc9C)cc8)C(C)C)on7)[C@@H](C)C6)CC5)nc4c3F)c12 [Compound 209, (2S,4R)-1-[(2R)-2-{3-[(2S)-4-[(1-{2-[(4-{3,8-diazabicyclo[3.2.1]octan-3-yl}-7-(8-ethyl-3-hydroxynaphthalen-1-yl)-8-fluoropyrido[4,3-d]pyrimidin-2-yl)oxy]ethyl}-4-fluoropiperidin-4-yl)methyl]-2-methylpiperazin-1-yl]-1,2-oxazol-5-yl}-3-methylbutanoyl]-4-hydroxy-N-[(1S)-1-[4-(4-methyl-1,3-thiazol-5-yl)phenyl]ethyl]pyrrolidine-2-carboxamide]
Dmax: 80 to 100% | DC50: < 600 nM

Structure (SMILES): CCc1cccc2cc(O)cc(-c3ncc4c(N5C[C@H]6CC[C@@H](C5)N6)nc(OC[C@@H]5CC[C@@H](COC(=O)N6CCC(Oc7cc([C@@H](C(=O)N8C[C@H](O)C[C@H]8C(=O)N[C@@H](C)c8ccc(-c9scnc9C)cc8)C(C)C)on7)CC6)N5C)nc4c3F)c12 [Compound 255, ((2S,5S)-5-(((4-((1R,5S)-3,8-diazabicyclo[3.2.1]octan-3-yl)-7-(8-ethyl-3-hydroxynaphthalen-1-yl)-8-fluoropyrido[4,3-d]pyrimidin-2-yl)oxy)methyl)-1-methylpyrrolidin-2-yl)methyl 4-((5-((S)-1-((2S,4R)-4-hydroxy-2-(((S)-1-(4-(4-methylthiazol-5-yl)phenyl)ethyl)carbamoyl)pyrrolidin-1-yl)-3-methyl-1-oxobutan-2-yl)isoxazol-3-yl)oxy)piperidine-1-carboxylate]
Dmax: 20 to 60% | DC50: 600 to 1000 nM

DC50: > 3000 nM
Structure (SMILES): CCc1cccc2cc(O)cc(-c3ncc4c(N5CC6CCC(C5)N6)nc(OCCN5CCN(CC6CN(c7cc([C@@H](C(=O)N8C[C@H](O)C[C@H]8C(=O)N[C@@H](C)c8ccc(-c9scnc9C)cc8)C(C)C)on7)C6)CC5)nc4c3F)c12 [Compound 221, (2S,4R)-1-[(2S)-2-(3-{3-[(4-{2-[(4-{3,8-diazabicyclo[3.2.1]octan-3-yl}-7-(8-ethyl-3-hydroxynaphthalen-1-yl)-8-fluoropyrido[4,3-d]pyrimidin-2-yl)oxy]ethyl}piperazin-1-yl)methyl]azetidin-1-yl}-1,2-oxazol-5-yl)-3-methylbutanoyl]-4-hydroxy-N-[(1S)-1-[4-(4-methyl-1,3-thiazol-5-yl)phenyl]ethyl]pyrrolidine-2-carboxamide]

Structure (SMILES): CCc1cccc2cc(O)cc(-c3ncc4c(N5CC6CCC(C5)N6)nc(OC[C@]56CCCN5[C@H](COC(=O)N5CCN(c7cc([C@H](C(=O)N8C[C@H](O)C[C@H]8C(=O)N[C@@H](C)c8ccc(C#N)cc8)C(C)C)on7)CC5)CC6)nc4c3F)c12 [Compound 66, [(3S,7aR)-7a-{[(4-{3,8-diazabicyclo[3.2.1]octan-3-yl}-7-(8-ethyl-3-hydroxynaphthalen-1-yl)-8-fluoropyrido[4,3-d]pyrimidin-2-yl)oxy]methyl}-hexahydro-1H-pyrrolizin-3-yl]methyl 4-{5-[(2R)-1-[(2S,4R)-2-{[(1S)-1-(4-cyanophenyl)ethyl]carbamoyl}-4-hydroxypyrrolidin-1-yl]-3-methyl-1-oxobutan-2-yl]-1,2-oxazol-3-yl}piperazine-1-carboxylate]
Dmax: 60 to 80% | DC50: < 600 nM

Structure (SMILES): CCc1cccc2cc(O)cc(-c3ncc4c(N5CC6CCC(C5)N6)nc(OCCN5CCC(CC6CN(c7cnc(C(=O)N[C@H](C(=O)N8C[C@H](O)C[C@H]8C(=O)N[C@@H](C)c8ccc(-c9scnc9C)cc8)C(C)(C)C)cn7)C6)CC5)nc4c3F)c12 [Compound 279]
Dmax: 60 to 80% | DC50: < 600 nM

Dmax: 80 to 100% | DC50: < 600 nM
Structure (SMILES): CCc1cccc2cc(O)cc(-c3ncc4c(N5CCCCCC5)nc(OC[C@]56CCCN5[C@H](COc5cc([C@H](C(=O)N7C[C@H](O)C[C@H]7C(=O)N[C@@H](C)c7ccc(-c8scnc8C)cc7)C(C)C)on5)CC6)nc4c3F)c12 [Compound 208, (2S,4R)-1-[(2R)-2-(3-{[(3S,7aR)-7a-({[4-(azepan-1-yl)-7-(8-ethyl-3-hydroxynaphthalen-1-yl)-8-fluoropyrido[4,3-d]pyrimidin-2-yl]oxy}methyl)-hexahydro-1H-pyrrolizin-3-yl]methoxy}-1,2-oxazol-5-yl)-3-methylbutanoyl]-4-hydroxy-N-[(1S)-1-[4-(4-methyl-1,3-thiazol-5-yl)phenyl]ethyl]pyrrolidine-2-carboxamide]

Reference: US20250206732A1, “COMPOUNDS AND METHODS FOR THE TARGETED DEGRADATION OF KRAS” (Arvinas Operations, Inc., priority 2022, published 2025)
